Reference: article PMC5834903, “Phytochemical profiling and in vitro screening for anticholinesterase, antioxidant, antiglucosidase and neuroprotective effect of three traditional medicinal plants for Alzheimer’s Disease and Diabetes Mellitus dual therapy” (BMC Complementary and Alternative Medicine, 2018)
Converted amounts (≈) assume the structure as drawn.

Biological target: T1, β–glucosidase
T1 construct: gene emulsin; sweet almond is only the usual commercial preparation
Assay: p-nitrophenol release, […] nm
Format: biochemical
Conditions: p-nitrophenyl β-D-glucopyranoside […], phosphate buffer pH […] °C

SMILES: O=C1O[C@H](CO)[C@@H](O)[C@H](O)[C@H]1O [D-Glucono-δ-lactone]
- IC50 Values (μg/mL) / β-Glc: 10.68 ± 0.005 µg/mL (≈ 60 µM)
